Where no end group is shown, it is not given here.
Tests used:
HLA A2 = target: T1, HLA A2 (Homo sapiens, UniProt P04439, D140Y/D185E/D98H/E176V/E277Q/G131W/G231S/I119V/I121R/I166T/I218V/L300P/L318F/N151K/N90K/P208A/P217A/Q86G/Q94H/R138H/R169H/T345S); assay type: cell-based; settings: HLA A2 on T2 cells; relative increase in HLA expression vs no peptide at 26° C.
T1 construct: endogenous in cells; host or cells: T2 cells

[1] = system: PBMC from healthy HCMV seropositive donors; assay: IFN-γ ELISPOT assay; assay type: cell-based, human; settings: peptide 10 μg/ml
Experimental: ELISPOT assay was used to assess whether stimulation of PBMC from a large panel of seropositive donors with HCMV peptides could induce IFN-γ expression in T cells. Briefly, a 96-well nitrocellulose plate (Multiscreen, Millipore) was coated overnight at 4° C. with mouse monoclonal antibody anti-IFN-γ IgG1 (10 μg/ml; Mabtech Nacka, Sweden). The plate was then washed six times in Phosphate Buffered Saline (PBS) and blocked for 1 hour at 37° C. with PBS supplemented with 5% FCS. The blocking solution was removed and PBMC from healthy HCMV seropositive donors were added at a concentration of 2.5×10^5 cells per well in growth medium. These cells were incubated for 18 h at 37° C. in a 5% CO2 atmosphere in the presence of synthetic peptides from HCMV antigens (10 μg/ml). After incubation, the plate was washed three times with PBS supplemented with 0.05% Tween, followed by three washes with PBS alone. Biotinylated anti-IFN-γ (Mabtech, Nacka Sweden) detection antibody was added to each well at a final concentration of 1 μg/ml in PBS. The plates were incubated at room temperature in the dark for 4 h and then washed, as described above. Streptavidin-Alkaline phosphatase (Sigma) was added to each well at a final concentration of 1 μg/ml in PBS and incubated at room temperature in the dark for 2 h. After a final wash with PBS, the substrate, 5-bromo-4-chloro-3-indolyl phosphate and nitro blue tetrazolium, was added to each well and the plates incubated for 30 min at RT. Cells that produced IFN-γ in response to the presence of peptide were detected as purple spots on the nitrocellulose membrane of each well. The spots were counted automatically using a closed-circuit camera (CCD) and ImagePro image analysis software or automated ELISPOT reader (AID, Germany). The T cell precursor frequency for each peptide was based on the total number of PBMC in the well and the number of peptide-specific spots per well, over an average of 3 wells. The number of peptide-specific spots was also calculated by subtracting the negative control values, which consisted of PBMC without peptide (an average of 3 wells), from the test wells.
To determine whether memory CTL responses against the predictive HCMV potential epitopes could be detected in healthy seropositive virus carriers, we used the ELISPOT assay, which allows rapid identification of CTL epitopes without prolonged in vitro culture.
We tested epitopes that were restricted for HLA A1, A3, A24, A26, B7, B8, B27, B35 and B44 in ELISPOT assays, to determine whether memory T cell responses could be detected in healthy HLA-matched virus carriers. PBMC from a cohort of healthy virus carriers (Table 2) were stimulated with individual peptides and the cells that produced IFN-γ were detected. CTL epitopes that were restricted through either HLA A1, A3, A24, A26, B7, B8 or B27, were identified.
Thus, a total of 450 peptides were produced. ELISPOT assays were used to determine whether ex vivo memory T cell responses could be detected in a cohort of 14 healthy virus carriers (Table 2). PBMC were stimulated with individual peptides and the cells that produced IFN-γ were detected.

Sequence | MSE (MHC stabilization efficiency) (HLA A2) | ELISPOT Responses (SFC/10^6 PBMC) ([1]; donor sixteen) | also measured
ALDPYNEVV (human cytomegalovirus gH CTL epitope peptide) | +++ (+++ = 200-300%) |  | 
ALFFFDIDL [reference compound] | ++ (++ = 100-199%) |  | 
ALTVSEHVSYVVTNQYLIKG |  |  | ELISPOT Responses (SFC/10^6 PBMC) ([1]; donor four): MB(23) SFC/10^6 PBMC
ASSPSTGSGTPRBTSPTHPL (ASSPSTGSGTPRXTSPTHPL; not fully specified) |  |  | ELISPOT Responses (SFC/10^6 PBMC) ([1]; donor eight): JW(95) SFC/10^6 PBMC
ATSTGDVVY (human cytomegalovirus gB CTL epitope peptide) |  | TC(239) SFC/10^6 PBMC | 
CTPNVQTRRGRVKIDEVSRM |  | TC(89) SFC/10^6 PBMC | 
CVETMCNEY (human cytomegalovirus IE1 CTL epitope peptide) [reference compound] |  | TC(4187) SFC/10^6 PBMC | 
DEEEAIVAY (human cytomegalovirus IE1 CTL epitope peptide) |  | TC(3903) SFC/10^6 PBMC | 
DLDEGIMVV (human cytomegalovirus gB CTL epitope peptide) | − (− = 0-50%) |  | 
DLVPLTVSV (human cytomegalovirus pp71 CTL epitope peptide) | + (+ = 51-99%) |  | 
FETSGGLVVFWQGIKQKSLV (human cytomegalovirus gB CTL epitope peptide) |  |  | ELISPOT Responses (SFC/10^6 PBMC) ([1]; donor four): 23 SFC/10^6 PBMC; ELISPOT Responses (SFC/10^6 PBMC) ([1]; donor seven): 185 SFC/10^6 PBMC
FLGARSPSL (human cytomegalovirus pp150 CTL epitope peptide) | ++ (++ = 100-199%) |  | 
FLLSHDAAL (human cytomegalovirus pp28 CTL epitope peptide) | ++ (++ = 100-199%) |  | 
GLDDLMSGL (human cytomegalovirus gB CTL epitope peptide) | ++ (++ = 100-199%) |  | 
GLDRNSGNY (human cytomegalovirus pp50 CTL epitope peptide) |  | 507 SFC/10^6 PBMC | ELISPOT Responses (SFC/10^6 PBMC) ([1]; donor three): 345 SFC/10^6 PBMC
GLLGASMDL (human cytomegalovirus pp28 CTL epitope peptide) | − (− = 0-50%) |  | 
HANTALVNAVNKLVYTGRLI (human cytomegalovirus pp150 CTL epitope peptide) |  |  | ELISPOT Responses (SFC/10^6 PBMC) ([1]; donor three): MW(122) SFC/10^6 PBMC
HRQDALPGPCIASTPKKHRG |  |  | ELISPOT Responses (SFC/10^6 PBMC) ([1]; donor epsilon): SC(109) SFC/10^6 PBMC
IGDQYVKVY |  | 67 SFC/10^6 PBMC | ELISPOT Responses (SFC/10^6 PBMC) ([1]; donor eleven): 565 SFC/10^6 PBMC
IILVAIAVV (human cytomegalovirus gB CTL epitope peptide) | + (+ = 51-99%) |  | 
IKEHMLKKY (human cytomegalovirus IE1 CTL epitope peptide) |  | TC(4232) SFC/10^6 PBMC | 
ILDEERDKV (human cytomegalovirus IE1 CTL epitope peptide) | ++ (++ = 100-199%) |  | 
ILFDGHDLL (human cytomegalovirus gH CTL epitope peptide) | +++ (+++ = 200-300%) |  | 
ILGADPLRV (human cytomegalovirus IE1 CTL epitope peptide) | ++ (++ = 100-199%) |  | 
KCSSGGGASVTSSHHGRGGF |  | TC(54) SFC/10^6 PBMC | 
KDVALRHVVCAHELVCSMEN |  | TC(50) SFC/10^6 PBMC | 
LDEGIMVVY (human cytomegalovirus gB CTL epitope peptide) |  | TC(239) SFC/10^6 PBMC | 
LLGALNLCL (human cytomegalovirus IE2 CTL epitope peptide) | ++ (++ = 100-199%) |  | 

Sequence | MSE (MHC stabilization efficiency) (HLA A2) | ELISPOT Responses (SFC/10^6 PBMC) ([1]; donor sixteen) | also measured
LLIPKSFTL (human cytomegalovirus pp71 CTL epitope peptide) | − (− = 0-50%) |  | 
LLLIVTPVV (human cytomegalovirus pp28 CTL epitope peptide) | ++ (++ = 100-199%) |  | 
LLMMSVYAL (human cytomegalovirus gH CTL epitope peptide) | ++ (++ = 100-199%) |  | 
LLSEFCRVL (human cytomegalovirus IE1 CTL epitope peptide) | ++ (++ = 100-199%) |  | 
LLVEPCARV (human cytomegalovirus pp28 CTL epitope peptide) | ++ (++ = 100-199%) |  | 
LLYPTAVDL (human cytomegalovirus gH CTL epitope peptide) | +++ (+++ = 200-300%) |  | 
LTVSGLAWTRQQNQWKEPDV |  |  | ELISPOT Responses (SFC/10^6 PBMC) ([1]; donor epsilon): SC(695) SFC/10^6 PBMC
MLPLIKQEDIKPEPDFTIQY |  |  | ELISPOT Responses (SFC/10^6 PBMC) ([1]; donor seven): SB(132) SFC/10^6 PBMC
NIEFFTKNSAFPKTTNGCSQ (human cytomegalovirus IE1 CTL epitope peptide) |  |  | ELISPOT Responses (SFC/10^6 PBMC) ([1]; donor fifteen): CP(1767) SFC/10^6 PBMC
NTDFRVLEL (human cytomegalovirus gB CTL epitope peptide) |  | TC(1631) SFC/10^6 PBMC | 
PLGRPDEDSSSSSSSSCSSA |  | TC(46) SFC/10^6 PBMC | 
PRVTSPTHPLSQMNHPPLPD |  | 96 SFC/10^6 PBMC | ELISPOT Responses (SFC/10^6 PBMC) ([1]; donor eight): 52 SFC/10^6 PBMC
PVDLLGALNLCLPLMQKFPK (human cytomegalovirus IE2 CTL epitope peptide) |  | 169 SFC/10^6 PBMC | ELISPOT Responses (SFC/10^6 PBMC) ([1]; donor epsilon): 111 SFC/10^6 PBMC
RGDPFDKNY (human cytomegalovirus pp50 CTL epitope peptide) |  | 2739 SFC/10^6 PBMC | ELISPOT Responses (SFC/10^6 PBMC) ([1]; donor nine): 720 SFC/10^6 PBMC
RPSTPRAAV (human cytomegalovirus pp150 CTL epitope peptide) |  |  | ELISPOT Responses (SFC/10^6 PBMC) ([1]; donor four): MB(306) SFC/10^6 PBMC
RRKMMYMCYRNIEFFTKNSA (human cytomegalovirus IE1 CTL epitope peptide) |  |  | ELISPOT Responses (SFC/10^6 PBMC) ([1]; donor fifteen): CP(632) SFC/10^6 PBMC
RVKIDEVSRMFRNTNRSLEY |  | 194 SFC/10^6 PBMC | ELISPOT Responses (SFC/10^6 PBMC) ([1]; donor epsilon): 306 SFC/10^6 PBMC
STSQKPVLGKRVATPHASAR (human cytomegalovirus pp150 CTL epitope peptide) |  |  | ELISPOT Responses (SFC/10^6 PBMC) ([1]; donor three): MW(215) SFC/10^6 PBMC
TENGSFVAGY (human cytomegalovirus UL18 CTL epitope peptide) |  |  | ELISPOT Responses (SFC/10^6 PBMC) ([1]; donor five): CS(283) SFC/10^6 PBMC
THQLCPRSSDYRNMIIHAAT (human cytomegalovirus IE2 CTL epitope peptide) |  | 124 SFC/10^6 PBMC | ELISPOT Responses (SFC/10^6 PBMC) ([1]; donor epsilon): 173 SFC/10^6 PBMC
TSAGRKRKSASSATACTSGV |  |  | ELISPOT Responses (SFC/10^6 PBMC) ([1]; donor epsilon): SC(138) SFC/10^6 PBMC
TVQGQNLKY |  | 251 SFC/10^6 PBMC | ELISPOT Responses (SFC/10^6 PBMC) ([1]; donor eleven): 385 SFC/10^6 PBMC
VKESPGRCY (human cytomegalovirus gB CTL epitope peptide) |  | TC(51) SFC/10^6 PBMC | 
WQPAAQPKRRRHRQDALPGP |  |  | ELISPOT Responses (SFC/10^6 PBMC) ([1]; donor epsilon): SC(615) SFC/10^6 PBMC
YEQHKITSY (human cytomegalovirus pp50 CTL epitope peptide) |  |  | ELISPOT Responses (SFC/10^6 PBMC) ([1]; donor five): CS(67) SFC/10^6 PBMC
YRHTWDRHDEGAAQGDDDVW |  |  | ELISPOT Responses (SFC/10^6 PBMC) ([1]; donor epsilon): SC(295) SFC/10^6 PBMC
YRNMIIHAATPVDLLGALNL (human cytomegalovirus IE2 CTL epitope peptide) |  | TC(137) SFC/10^6 PBMC | ELISPOT Responses (SFC/10^6 PBMC) ([1]; donor eight): 132 SFC/10^6 PBMC; ELISPOT Responses (SFC/10^6 PBMC) ([1]; donor epsilon): 229 SFC/10^6 PBMC

Source: patent US7524503B2, “Human cytomegalovirus (HCMV) cytotoxic T cell epitopes, polyepitopes compositions comprising same and diagnostic and prophylactic and therapeutic uses therefor” (priority 2001, dated 2009)
